What is called IC50 is the concentration needed to halve the response being measured.

Here are results for one molecule from US20250302846A1, “ANTIBIOTIC COMPOSITION AND METHODS OF USE THEREOF” (THE REGENTS OF THE UNIVERSITY OF COLORADO A BODY CORPORATE, priority 2022, published 2025).

Like-named read-outs stand apart in the source and are kept apart here.

Data set [1] concerns S. Typhimurium. In words: Growth curves and kill curves. It counts as cell-based. The following applies: outer-membrane perturbing conditions, D66 at 2x MIC, LB or MHB, 18 hours. How it is done:
FIG. 3A-F. D66 rapidly perturbs the bacterial cytoplasmic membrane with minor disruption of barrier function. Mid-log phase S. Typhimurium cells grown in LB with 0.5 μg/mL PMB were used for all experiments. A) Cell membrane potential was monitored with the fluorescent dye DiSC3 (5). Cells were treated at time 0 with DMSO, JD1 [70 μM], or D66. Data were normalized to DMSO at time 0 and corrected for the quenching effect of D66 (FIG. 6A, B) B) Cell membrane permeability was monitored by PI fluorescence. Cells were treated at time 0 with DMSO, SDS [0.005%] or D66. Samples were processed at the time points shown. A one-way ANOVA with a Dunnet's multiple comparison test, * P<0.005. C-F) Growth curves and kill-curves of cells treated at time 0 with either DMSO or D66. Culture aliquots were monitored for OD600 (C, E) or plated for enumeration of CFU (D, F). Data are presented as fold change. Mean and SEM of three biological replicates with technical triplicates are shown in all panels.
Growth curves and kill curves: Mid-log phase cultures were sampled at time 0 and then compound or vehicle control (DMSO) was added. Cultures were incubated at 37° C. with agitation. At the time intervals indicated, aliquots were monitored for OD600 and plated for CFU enumeration. Data for OD600 and CFU/mL were normalized to time 0.

In data set [2] the test system is S. Typhimurium SL1344. In words: Novobiocin potentiation (checkerboard) assay. The following applies: LB, 18 hours, D66 up to 150 μM, novobiocin up to 100 μg/mL. It counts as cell-based. How it is done: A, B) Dose response curves monitoring S. Typhimurium (SL1344) or E. coli (K12) growth from an OD600 of 0.01, normalized to growth in 2% DMSO under the indicated condition. Mean and SEM of at least three biological replicates performed with technical triplicates; curve fit: sigmoidal, 4P L. C-E) Checkerboard assays of S. Typhimurium SL1344 growth from an OD600 of 0.01 in LB for 18 hours with novobiocin (up to 100 μg/mL) and (C) PMB (up to 48 μM), (D) JDI (up to 150 μM), or (E) D66 (up to 150 μM). Growth was normalized to growth in 2% DMSO, with the darkest blue representing 100% growth and white representing 0%.
Novobiocin potentiation assays: Overnight LB-grown cultures were diluted in LB to an optical density at 600 nm (OD600) of 0.01 and distributed into polystyrene 96-well flat-bottom plates (Greiner, 655185). […] The final DMSO concentration was at or below 2%. Plates were grown at 37° C. with shaking for 18 hours and OD600 was monitored (BioTek Synergy H1).

In data set [3] the test system is S. Typhimurium strain SL1344. It counts as in vivo. As for the experimental part:
FIG. 5A-C. […] Mice were euthanized 48 hours after infection. […] Significance was determined by Mann-Whitney.
Female C57Bl/6 7-8-week-old mice were IP inoculated with S. Typhimurium strain SL1344. Six mice per cohort were IP-treated with 100 μL of vehicle (50% DMSO), 50 mg/kg of chloramphenicol, or 50 mg/kg of D66 at 10 minutes and 24 hours post-infection. Mice were euthanized at 48 hours by CO2 asphyxiation, followed by cervical dislocation. Spleen and liver were collected, homogenized in 1 mL PBS and serially diluted for plating to enumerate CFU. The experiment was performed twice independently with 7×10^3 CFU, 3×10^4 CFU respectively, as determined by plating. A ROUT test for outliers and a Mann-Whitney test for significance were performed in GraphPad Prism.

In data set [4] the test system is staphylococcal biofilm. In words: Staphylococcal biofilm formation. It counts as cell-based. The following applies: 18 hours in TSB, subinhibitory concentrations. How it is done:
Biofilm formation was monitored after 18 hours in TSB with subinhibitory concentrations of DMSO, rifampin (1x MIC95=0.05 μg/mL), vancomycin (1x MIC95=1 μg/mL), or D66 (1x MIC95=130 μM). A-D) Crystal violet staining for accumulated biofilm mass measured at A595. Mean and
SEM of three biological replicates performed with technical triplicates. E-F). Biofilms were stained with Syto 9 (live cells) and PI (damaged/dead cells) and imaged with confocal fluorescent microscopy. Volume of live, dead, and total cell volume was calculated (positive volume=positive voxel; 1 voxel=0.0367 μm3). Asterisks indicate P≤0.05 as determined by one-way ANOVA compared to DMSO. Mean and SDs derived from a minimum of four fields of view each from two biological replicates.

The test system of data set [5] is S. Typhimurium SL1344 or 14028 in RAW 264.7 cells. In words: CFU assay in infected RAW 264.7 macrophages. It counts as cell-based. The following applies: for IC50: Salmonella enterica, TYPHIMURIUM
How it is done: FIG. 1A-D. D66 is a small molecule that prevents S. Typhimurium replication and/or survival in macrophages. A). Structure of D66. B) RAW264.7 macrophage-like cells were infected with S. Typhimurium harboring a chromosomal sifB: : gfp reporter, treated with DMSO or D66 at two hours after infection, and monitored for bacterial accumulation (GFP+Macrophage Area) over 16 hours using the SAFIRE (Screen for Anti-infectives using Fluorescence microscopy of Intracellular Enterobacteriaceae) assay. The IC50 value is indicated. Mean and SD of biological duplicates with technical duplicates across 9 dilutions of D66. C, D) CFU assays were performed with RAW264.7 or HeLa cells infected with S. Typhimurium SL1344 or 14028 for two hours and treated for 16 hours with DMSO or 1.5-fold dilutions of D66, prior to lysis and plating for CFU. Symbols on the Y-axes are the CFU value from DMSO-treated samples. The IC50 values are indicated. Mean and SEMs of biological triplicates with technical duplicates across 8 dilutions of D66.
CFU assays were performed with RAW 264.7 cells seeded as above or with Hela cells (ATCC CCL-2) seeded at 1x10^4 cells per 96-well. Cells were infected as described above with either S. Typhimurium SL1344 or 14028, as indicated at an approximate MOI of 30 bacteria per RAW 264.7 cell and 150 bacteria per HeLa cell. Plates were centrifuged and gentamicin treated as above. At 18 hours after infection, wells were washed twice with PBS and lysed with 30 μL 0.1% Triton X-100 in PBS for five minutes. Lysed cells were plated to L-agar and enumerated for CFU.

As for `O=C(Nc1cc(Cl)cc(Cl)c1)N1CCCN(Cc2ccccc2)CC1` [D66], in data set [1], the “absorbance and CFU of bacteria (cell lysis)” value is on record as “did not reduce the absorbance nor the CFU of bacteria”. Moreover, the “potentiation of growth inhibition with novobiocin” value in data set [2] is “did not potentiate novobiocin”. Besides, in data set [3] (C57Bl/6 mice, 50 mg/kg IP at 10 minutes and 24 hours post-inoculation, 48 hours, P<0.05 Mann-Whitney), the “S. Typhimurium colonization of spleen and liver (tissue CFU)” value is “reduced S. Typhimurium colonization in both tissues”. Besides, in data set [3] (female, C57Bl/6, mouse, in vivo, ip, 50 mg/kg, 48 h), the “survival and condition of infected treated mice” value is on record as “survived in good condition out to 48 hours”. Moreover, in data set [4], the staphylococcal biofilm formation entry is listed as “inhibits staphylococcal biofilm formation”. Besides, the IC50 in data set [5] (RAW264.7, 16 h, S. Typhimurium 14028 in macrophages, treated 16 hours, read-out: CFU IC50) is 4.9 µM; in data set [5] (RAW264.7, 16 h, S. Typhimurium SL1344 in macrophages, treated 16 hours, read-out: CFU IC50) it was 7.7 µM; in data set [5] (RAW264.7, as quoted for dose selection, read-out: IC50 of D66 against S. Typhimurium in macrophages), about 7.8 µM. The CFU reduction in data set [5] (macrophages) was over 1000 fold.
